Measurements from patent US9427433B2, “Methods and compositions for enhancing fertility and/or inhibiting pregnancy failure and restoring glucose tolerance” (Queen's University at Kingston, priority 2011, dated 2016).

Assays:
NOD, NZO and DIO mice = assay: Ovarian function, serum estrogen/progesterone, follicle counts and uterine weight ratio; assay type: in vivo, mouse
Experimental: Using Papanicolaou's staining kit (Sigma Aldrich, Oakville, Ontario, Canada), staining of vaginal smears obtained between 09:00-10:00 AM was performed to identify the phases of the estrous cycle and to establish the individual animal cycling pattern as previously described (Koss L. G (Ed): The Papanicolaou Stain. In Diagnostic Cytology and its Histopathological Bases. 4th Edit. Koss, Leopold; Melamed and Myron R. Eds. J.B. Lippincott Williams & Wilkins (LWW), Philadelphia. 1992; Vol. 2: 1211-1221). Blood and virgin uteri were collected from nulliparous diabetic NOD females, at the proestrus, estrus and the metestrus phase, respectively, after four weeks in diabetes. Blood and uteri were also collected from age-matched, tacrolimus-treated nulliparous NOD mice immediately after completing the treatment schedule.
Fifty four NOD mice at the prediabetic and early diabetic stages were carefully selected to match the criteria of being 2 standard deviation heavier in body weight than their age-matched normoglycemic control mice and having blood glucose value of >14.9 mM/1 during the glucose tolerance test. The selected mice were 9 weeks old and were treated with 0.1 mg/kg q2d of tacrolimus (Prograf (5 mg/ml), Astellas) subcutaneously administered in 0.2 ml saline for three weeks after which animals were mated to males of the same strain (See FIG. 1). Vehicle (0.2 ml saline, s.q.) treated hyperglycemic NOD female mice were allowed two weeks in diabetes before they were mated to males of the same strain. Facial (mandibular) venous blood samples were collected from treated animals at 24 and 48 hours between injections and at pregnancy days 0.5, 2.5, 4.5, 6.5, 8.5, 10.5, 12.5, 14.5, 16.5 and 18.5 respectively following a standard procedure for facial bleed in mice (Golde et al Lab Anim (NY) 2005 34:39-43).
Twenty NZO and DIO/B6 female mice were maintained on a high fat diet consisted of 60% kcal fat, 20% kcal protein and 20% kcal carbohydrate, with a total energy mass of 5.24 kcal/gm (D12492, Research Diets Inc.; Cedarlane Laboratories, Burlington, Ontario, Canada) starting at 7 weeks of age and maintained on the diet for a total of 12 weeks of study period during which their weekly body weight changes and non-fasting blood glucose values were recorded. Mice which became obese as defined by having a Body mass index (BMI) value of 30, and tested positive for glucose intolerance were selected for an initial treatment episode with tacrolimus after being fed for four weeks with the high fat diet (See FIG. 2). Tacrolimus (Prograf (5 mg/ml), Astellas) was administered subcutaneously in a dose of 0.1 mg/kg q2d in 0.2 ml saline for three weeks to the obese and glucose intolerant NZO and DIO mice starting at the age of 10 weeks after which animals were mated to males of the same strain and pregnancy was dated from the morning of the positive detection of vaginal (copulation) plug. Facial (mandibular) venous blood samples were collected from treated animals at 24 and 48 hours between injections and at pregnancy days 0.5, 2.5, 4.5, 6.5, 8.5, 10.5, 12.5, 14.5, 16.5 and 18.5, respectively, following a standard procedure for facial bleed in mice (Golde et al. Lab Anim (NY) 2005 34:39-43). A lean cohort of control B6 and BALBc mice was fed with a regular 10 kcal % control chow diet containing the same protein content as the high fat diet with a total energy mass of 3.1 kcal/g (D12450Bi, Cedarlane, Ontario). […]

[1] = system: female NZO mice fed a continuous high fat diet; assay: Weight loss, comparison of macrolides; assay type: in vivo, mouse; settings: tacrolimus 0.05 or 0.1 mg/kg, pimecrolimus 0.1 mg/kg, sirolimus 0.1 mg/kg s.c. every other day for three weeks; vs vehicle
Text: For the comparative evaluation of other macrolide drugs to tacrolimus, mice starting at 7 weeks of age were maintained on the high fat diet for a total of 13 weeks of study period. Mice were entered into the experiments when determined to be glucose intolerant as described above. Methods of drug administration and other experimental methods were as described above.

[2] = Likely blood concentration from the dose regimen described herein (extrapolated); assay type: in vivo, mouse; settings: four-fold lower than the rat value
Experimental: The smallest currently available tacrolimus dose is a 0.5 mg capsule and a single oral dose of 0.5 mg tacrolimus results in a maximal blood concentration in humans of 4.6 ng/ml (Mathew et al. Clinical Therapeutics. 2011 33(9):1105-1119). This represents over a seven-fold difference based upon the efficacious blood concentration of tacrolimus in experiments disclosed herein. A dose of 0.1 mg/kg in rats represents does of 0.2 mg/kg in mice, based upon a rat Km=6. This is a four-fold higher dose (0.2 mg/kg) than used in experiments disclosed herein. Therefore, the likely blood concentration from the dose regimen described herein would be four-fold lower (i.e. 0.15 ng/ml blood concentration) and represents an even greater exposure difference (28-fold to 38-fold) compared to existing tacrolimus dose forms for humans. Thus, experiments disclosed herein indicate that a substantially lower dose of macrolide agent such as tacrolimus than routinely administered to date may be useful in the methods of the present invention. By “substantially lower dose” or “low dose therapy” for purposes of the present invention, it is meant a dose of macrolide agent at least 2-fold lower, more preferably at least 4-fold lower, more preferably at least 10-fold lower, than the recommended starting doses of tacrolimus (Prograf) when administered for kidney and liver transplant or heart transplant.

[3] = system: uterine cytokines (IFN-γ, TNFα, IL16, IL12 family and others); assay: Cytokine multiplex profiling in uteri at peri-implantation; assay type: in vivo, mouse
Text: In all untreated or vehicle-treated diabetic mice, an aberrant over-expression of IFN-γ, TNFα and IL16 accounted for the immune-cytotoxicity related implantation failure in these mice.

[4] = system: patients with type I diabetes; settings: 0.15 mg/kg BID; cited from earlier work
[5] = short-term administration, FIG. 3B

## C=CC[C@@H]1/C=C(\C)C[C@H](C)C[C@H](OC)[C@H]2O[C@@](O)(C(=O)C(=O)N3CCCC[C@H]3C(=O)O[C@H](/C(C)=C/[C@@H]3CC[C@@H](O)[C@H](OC)C3)[C@H](C)[C@@H](O)CC1=O)[C@H](C)C[C@@H]2OC [tacrolimus]
NOD, NZO and DIO mice; 0.1 mg/kg q2d s.c. for three weeks
  ovulation: enhanced ovulation
NOD, NZO and DIO mice; 0.1 mg/kg q2d s.c. for three weeks, peri- and post-implantation
  ovarian secretion of estrogen and progesterone: normalized ovarian secretion of estrogen and progesterone
NOD, NZO and DIO mice; early proliferative phase (proestrus) of estrous cycle, FIG. 3C
  uterine growth (uterine weight ratio): significant improvement in uterine growth
NOD, NZO and DIO mice; [5]
  numbers of atretic follicles: reduced numbers of atretic follicles
  numbers of secondary follicles, antral follicles and corpora lutea: increased numbers of secondary follicles (FIG. 3B: S), antral follicles (FIG. 3B: A) and corpora lutea (FIG. 3B: CL)
[1]
  weight loss: significantly induced weight loss
[2]
  likely blood concentration: 0.15 ng/mL
[3]; diabetes prone mice, FIG. 12
  anti-inflammatory cytokines IL-1ra, IL10 and IL2 in uteri: inhibition of some anti-inflammatory cytokines such as IL-1ra, IL10 and IL2
[3]; peri-implantation, FIG. 8
  cytokines involved in inflammation, T-cell cytotoxicity and blood coagulation: pan-inhibition of cytokines involved in inflammation, T-cell cytotoxicity and blood coagulation
[3]; peri-implantation, FIG. 9
  uterine expression of MCP1, MCP5, MIG9, RANTES, SDF-1, KC: significantly downregulated the uterine expression of six major IFN-γ-regulated inflammatory cytokines
[3]; short-term administration prior to mating, peri-implantation
  Th1-induced cytokines (IFN-γ, IL16, TNFα, IL12 family) in uteri: significant inhibition of the vast majority of Th1-induced cytokines
[3]; time of implantation, FIG. 7F
  IL12 family cytokines in uteri: downregulating members of IL12 family cytokines
[3]; time of implantation, FIG. 11
  IL5, IL7 and IL13 expression in uteri: restored normalized levels of IL5, IL7 and IL13 expression
[4]
  outcome of clinical study in type I diabetes: inconclusive
